Legend:
Type in all cases: cell-based
SMARCA2 [1] = molecular target: T1, SMARCA2 (Homo sapiens, UniProt P51531); assay: MSD SMARCA2 degradation in A549 cell line; settings: 24 h; for Dmax: A549, A549 cells; for DC50: A549 cells, read-out: SMARCA2 MSD A549 degradation 24 h: Average external-Abs DC50
In short: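 SMARCA2 remaining was measured by MSD electrochemiluminescence on RIPA lysates (anti-SMARCA2 plus SULFO-TAG anti-rabbit). Prior exposure: 24 h of A549 cells to a 10-point, 3-fold dilution series topping at 1000 nM final; Dmax % given as graded codes.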

SMARCA4 = molecular target: T2, SMARCA4 (Homo sapiens, UniProt P51532); assay: SMARCA4 Western blot MV4-11 degradation; settings: 24 h; for Dmax: MV4-11, MV4-11 cells, read-out: SMARCA4 WB MV411 degradation 24 h: Average Dmax %; for DC50: MV4-11 cells, read-out: SMARCA4 WB MV411 degradation 24 h: Average external-Abs DC50
T2 construct: SMARCA2 and SMARCA4 protein degradation in MV4-11 cells; endogenous in cells; host or cells: MV4-11
In short: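 MV4-11 cells treated with compound for 24 h, lysed in RIPA with protease/phosphatase inhibitors, and SMARCA2 and SMARCA4 (BRG1) levels assessed by Western blot with β-actin loading control and LI-COR fluorescent read-out. Maximal degradation (Dmax %) after 24 h binned into letter codes.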

SMARCA2 [2] = molecular target: T1, SMARCA2; assay: SMARCA2 Western blot MV4-11 degradation; settings: 24 h; for Dmax: MV4-11, MV4-11 cells, read-out: SMARCA2 WB MV411 degradation 24 h: Average Dmax %; for DC50: MV4-11 cells, read-out: SMARCA2 WB MV411 degradation 24 h: Average external-Abs DC50
Method: Cells were seeded into 6-well plates (MV4-11: 4×10^6 cells/well/1 ml) and 1 ml of 2× compound solution was added into the well to make the final concentration and the plates were mixed well and incubated for 24 hours (No cytotoxicity was observed). The cell were collected with media and spun at 3000 rpm for 5 minutes. The supernatant was aspirated and the well and the cells were washed with cold PBS once and combined for centrifugation again; the supernatant aspirated again. 200 ul pre-chilled RIPAlysis buffer (Boston BioProducts BP-115D) with protease/phosphatase inhibitor (Roche 05892791001/Roche 04906837001) was directly added into the tube to lyze the cells for 20 minutes on ice. The cell lysate were collected into EP tubes and spun at 13000 rpm for 20 minutes and 72 ul supernatant was transferred to a fresh EP tube containing 18 ul of 5× loading buffer (Beyotime Bio P0015) to make the loading samples. The samples were heated to 100° C. for 10 minutes and cooled to RT and microcentrifuged. 20 ul of samples were loaded onto SDS-PAGE gel (Novex, WG1402BOX) and the gel was run at 80 V for 20 minutes and 120 V for 1.5 hours. The samples were electrotransfer to a NC membrane using wet-transfer method with 250 mA for 2.5 hours. The membrane was blocked with LICOR blocking buffer (LI-COR, 927-50000) for 1 hour. The membrane was washed three times with TBST (CST #9997S), 5 minutes each. Incubation was performed with primary antibody prepared in blocking buffer with 0.1% Tween-20 (Solarbio, P8220) at 4° C. overnight (Anti-SMARCA2/BRM antibody (ab15597) 1:500; Anti-BRG1 antibody [EPR3912] (ab108318) 1:1000; Rabbit anti-Baf180 antibody [EPR15860] (Abcam, ab196022) 1:1000; mouse anti-beta-Actin (8H10D10) (CST #3700) 1:10000). The membrane was washed three times with TBST, 5 minutes each. Incubation with secondary antibody was performed for 1 hour at RT (anti-rabbit IgG (Licor, 926-32211) 1:5000; anti-mouse IgG (LI-COR, 926-68070) 1:5000). The membrane was washed three times with TBST, 5 minutes each and lastly the LiCOR was read.
The letter codes for the percentage of SMARCA degradation after 24 hours (Dmax %) include: A (>90% degradation), B (>70-90% degradation), C (50-70% degradation), and D (<50% degradation).

T2 sequence (P51532 whole entry): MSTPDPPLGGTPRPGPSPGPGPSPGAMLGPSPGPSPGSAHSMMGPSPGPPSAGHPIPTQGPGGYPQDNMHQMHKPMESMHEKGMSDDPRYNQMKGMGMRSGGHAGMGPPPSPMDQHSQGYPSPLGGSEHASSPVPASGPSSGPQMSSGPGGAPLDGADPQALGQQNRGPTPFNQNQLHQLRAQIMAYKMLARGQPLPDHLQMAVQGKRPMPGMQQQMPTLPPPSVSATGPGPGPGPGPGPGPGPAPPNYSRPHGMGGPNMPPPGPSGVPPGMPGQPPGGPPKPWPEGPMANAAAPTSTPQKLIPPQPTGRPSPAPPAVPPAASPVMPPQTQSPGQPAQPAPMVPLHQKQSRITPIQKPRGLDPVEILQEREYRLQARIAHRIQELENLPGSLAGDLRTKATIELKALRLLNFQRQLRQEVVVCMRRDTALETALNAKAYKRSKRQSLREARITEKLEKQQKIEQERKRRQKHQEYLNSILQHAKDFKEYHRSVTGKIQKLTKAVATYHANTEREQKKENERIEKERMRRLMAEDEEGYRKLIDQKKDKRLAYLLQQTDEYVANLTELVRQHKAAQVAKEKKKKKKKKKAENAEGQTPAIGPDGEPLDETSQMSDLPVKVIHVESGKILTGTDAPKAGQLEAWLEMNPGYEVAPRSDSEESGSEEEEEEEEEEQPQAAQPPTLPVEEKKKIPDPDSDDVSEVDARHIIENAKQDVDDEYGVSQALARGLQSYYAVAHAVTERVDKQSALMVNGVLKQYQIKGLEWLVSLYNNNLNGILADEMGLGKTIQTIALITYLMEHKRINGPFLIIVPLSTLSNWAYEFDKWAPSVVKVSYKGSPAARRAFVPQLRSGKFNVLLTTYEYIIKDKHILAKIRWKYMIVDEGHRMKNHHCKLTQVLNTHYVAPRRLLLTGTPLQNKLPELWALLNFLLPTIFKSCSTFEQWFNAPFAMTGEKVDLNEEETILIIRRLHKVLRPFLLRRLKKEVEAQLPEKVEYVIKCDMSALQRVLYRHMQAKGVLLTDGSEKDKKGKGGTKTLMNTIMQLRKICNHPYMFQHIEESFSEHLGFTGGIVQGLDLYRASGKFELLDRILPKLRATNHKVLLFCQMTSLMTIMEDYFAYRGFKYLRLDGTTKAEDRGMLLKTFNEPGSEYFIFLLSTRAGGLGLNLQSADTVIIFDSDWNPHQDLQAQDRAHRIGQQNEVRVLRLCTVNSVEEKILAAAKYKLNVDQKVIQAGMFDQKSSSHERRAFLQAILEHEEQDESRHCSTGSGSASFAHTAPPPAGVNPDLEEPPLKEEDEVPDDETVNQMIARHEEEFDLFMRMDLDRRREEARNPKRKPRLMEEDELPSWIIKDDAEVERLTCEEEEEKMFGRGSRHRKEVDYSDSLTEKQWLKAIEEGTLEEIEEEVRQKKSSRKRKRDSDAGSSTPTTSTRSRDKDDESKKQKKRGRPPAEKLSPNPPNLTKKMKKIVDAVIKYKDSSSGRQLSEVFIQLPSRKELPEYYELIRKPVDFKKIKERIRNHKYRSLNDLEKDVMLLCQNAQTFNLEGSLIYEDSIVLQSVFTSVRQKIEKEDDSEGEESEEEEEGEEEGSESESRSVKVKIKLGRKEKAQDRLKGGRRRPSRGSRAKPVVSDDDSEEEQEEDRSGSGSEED
T1 sequence (P51531 whole entry): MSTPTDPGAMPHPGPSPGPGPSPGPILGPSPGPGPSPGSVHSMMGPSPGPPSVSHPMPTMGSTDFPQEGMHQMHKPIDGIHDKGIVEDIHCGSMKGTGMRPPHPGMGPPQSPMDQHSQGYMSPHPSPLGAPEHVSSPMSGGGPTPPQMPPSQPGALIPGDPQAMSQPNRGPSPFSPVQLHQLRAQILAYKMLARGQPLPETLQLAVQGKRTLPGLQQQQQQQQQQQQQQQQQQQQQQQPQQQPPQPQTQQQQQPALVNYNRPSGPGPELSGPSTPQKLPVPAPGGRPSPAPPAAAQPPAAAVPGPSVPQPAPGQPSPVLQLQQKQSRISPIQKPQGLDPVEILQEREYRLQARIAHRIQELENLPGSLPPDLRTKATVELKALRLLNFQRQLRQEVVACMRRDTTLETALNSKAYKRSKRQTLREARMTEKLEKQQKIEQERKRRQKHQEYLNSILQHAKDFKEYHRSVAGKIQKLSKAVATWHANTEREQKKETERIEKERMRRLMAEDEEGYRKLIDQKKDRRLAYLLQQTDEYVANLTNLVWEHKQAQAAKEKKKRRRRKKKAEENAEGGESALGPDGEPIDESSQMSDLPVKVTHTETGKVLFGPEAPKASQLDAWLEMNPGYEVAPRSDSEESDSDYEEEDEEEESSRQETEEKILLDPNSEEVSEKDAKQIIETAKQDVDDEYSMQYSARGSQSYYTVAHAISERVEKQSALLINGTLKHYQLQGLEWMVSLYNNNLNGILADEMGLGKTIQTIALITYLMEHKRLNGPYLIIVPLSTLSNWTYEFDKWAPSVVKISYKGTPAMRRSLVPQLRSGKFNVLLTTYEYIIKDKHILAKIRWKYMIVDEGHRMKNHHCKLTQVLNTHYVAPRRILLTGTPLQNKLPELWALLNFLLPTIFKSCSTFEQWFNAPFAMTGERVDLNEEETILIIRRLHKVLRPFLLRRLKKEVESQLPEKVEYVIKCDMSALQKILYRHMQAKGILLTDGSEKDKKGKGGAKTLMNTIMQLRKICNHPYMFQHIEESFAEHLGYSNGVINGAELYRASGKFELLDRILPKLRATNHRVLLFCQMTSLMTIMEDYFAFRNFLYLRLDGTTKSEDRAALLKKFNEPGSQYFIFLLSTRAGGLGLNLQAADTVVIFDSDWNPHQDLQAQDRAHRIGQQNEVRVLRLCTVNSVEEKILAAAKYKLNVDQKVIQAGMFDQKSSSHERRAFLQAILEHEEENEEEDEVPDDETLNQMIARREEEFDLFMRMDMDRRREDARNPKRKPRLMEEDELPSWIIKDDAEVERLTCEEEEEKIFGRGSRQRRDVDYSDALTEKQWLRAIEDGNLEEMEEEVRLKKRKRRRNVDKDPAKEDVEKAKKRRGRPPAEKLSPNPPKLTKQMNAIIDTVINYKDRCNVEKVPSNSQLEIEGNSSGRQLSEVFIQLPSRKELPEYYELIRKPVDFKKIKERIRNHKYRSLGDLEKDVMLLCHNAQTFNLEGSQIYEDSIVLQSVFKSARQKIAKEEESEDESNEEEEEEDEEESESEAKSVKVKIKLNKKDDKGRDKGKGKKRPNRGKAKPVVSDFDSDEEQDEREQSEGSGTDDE

SMILES | Dmax (SMARCA2 [1]) [%] | DC50 (SMARCA2 [1]) [nM] | Dmax (SMARCA4) [%] | DC50 (SMARCA4) [nM] | Dmax (SMARCA2 [2]) [%] | DC50 (SMARCA2 [2]) [nM]
Cc1ncsc1-c1ccc(CNC(=O)[C@@H]2C[C@@H](O)CN2C(=O)[C@@H](NC(=O)C2CCC(CN3CCC(n4cc(-c5cc(-c6ccccc6O)nnc5N)cn4)CC3)CC2)C(C)(C)C)cc1 (stereo partly drawn) [I-327] | > 90 | 100 to 500 | < 50 | > 1000 | > 90 | < 100
Cc1ncsc1-c1ccc(CNC(=O)[C@@H]2C[C@@H](O)CN2C(=O)[C@@H](NC(=O)[C@H]2C[C@@H](N3CCC(c4cnc(N5C6CCC5CN(c5cc(-c7ccccc7O)nnc5N)C6)nc4)CC3)C2)C(C)(C)C)cc1 [I-349] | > 90 | 100 to 500 | < 50 | 501 to 1000 | 70 to 90 | < 100
Cc1ncsc1-c1ccc(CNC(=O)[C@@H]2C[C@@H](O)CN2C(=O)[C@@H](NC(=O)CN2CCN(C3CCC(c4cnc(N5C6CCC5CN(c5cc(-c7ccccc7O)nnc5N)C6)nc4)CC3)CC2)C(C)(C)C)cc1 (stereo partly drawn) [I-354, (2S,4R)-1-((2S)-2-(2-(4-(4-(2-(3-(3-amino-6-(2-hydroxyphenyl)pyridazin-4-yl)-3,8-diazabicyclo[3.2.1]octan-8-yl)pyrimidin-5-yl)cyclohexyl)piperazin-1-yl)acetamido)-3,3-dimethylbutanoyl)-4-hydroxy-N-(4-(4-methylthiazol-5-yl)benzyl)pyrrolidine-2-carboxamide] | > 90 | < 100 | > 90 | < 100 | > 90 | < 100
Cc1ncsc1-c1ccc(CNC(=O)[C@@H]2C[C@@H](O)CN2C(=O)[C@@H](NC(=O)[C@H]2CC[C@H](Cc3cnc(N4C5CCC4CN(c4cc(-c6ccccc6O)nnc4N)C5)nc3)CC2)C(C)(C)C)cc1 [I-366, (2S,4R)-1-((2S)-2-((1r,4S)-4-((2-(3-(3-amino-6-(2-hydroxyphenyl)pyridazin-4-yl)-3,8-diazabicyclo[3.2.1]octan-8-yl)pyrimidin-5-yl)methyl)cyclohexane-1-carboxamido)-3,3-dimethylbutanoyl)-4-hydroxy-N-(4-(4-methylthiazol-5-yl)benzyl) pyrrolidine-2-carboxamide] | > 90 | < 100 | > 90 | < 100 | > 90 | < 100
Cc1ncsc1-c1ccc(CNC(=O)[C@@H]2C[C@@H](O)CN2C(=O)[C@@H](NC(=O)[C@H]2CC3(C2)C[C@H](c2cnc(N4C5CCC4CN(c4cc(-c6ccccc6O)nnc4N)C5)nc2)C3)C(C)(C)C)cc1 (stereo partly drawn) [I-368] | > 90 | < 100 | > 90 | < 100 | > 90 | < 100
Cc1ncsc1-c1ccc(CNC(=O)[C@@H]2C[C@@H](O)CN2C(=O)[C@@H](NC(=O)[C@H]2C[C@@]3(C2)C[C@H](c2cnc(N4C5CCC4CN(c4cc(-c6ccccc6O)nnc4N)C5)nc2)C3)C(C)(C)C)cc1 (stereo partly drawn) [I-369] |  | < 100 |  | < 100 |  | < 100
Cc1ncsc1-c1ccc(CNC(=O)[C@@H]2C[C@@H](O)CN2C(=O)[C@@H](NC(=O)[C@H]2CC[C@H](CN3CCC(c4cnc(N5C6CCC5CN(c5cc(-c7ccccc7O)nnc5N)C6)nc4)CC3)CC2)C(C)(C)C)cc1 [I-375] | > 90 | 100 to 500 | 50 to 70 | 501 to 1000 | > 90 | < 100
Cc1ncsc1-c1ccc(CNC(=O)[C@@H]2C[C@@H](O)CN2C(=O)[C@@H](NC(=O)[C@H]2CC[C@H](CCCCCN3CCC(Cn4cc(-c5cc(-c6ccccc6O)nnc5N)cn4)CC3)CC2)C(C)(C)C)cc1 [I-378] | > 90 | 100 to 500 | > 90 | < 100 | > 90 | < 100
Cc1ncsc1-c1ccc(CNC(=O)[C@@H]2C[C@@H](O)CN2C(=O)[C@@H](NC(=O)[C@H]2CC[C@H](CCN3CCC(n4cc(-c5cc(-c6ccccc6O)nnc5N)cn4)CC3)CC2)C(C)(C)C)cc1 [I-399] | > 90 | < 100 | 50 to 70 | 100 to 500 | > 90 | < 100
Cc1ncsc1-c1ccc(CNC(=O)[C@@H]2C[C@@H](O)CN2C(=O)[C@@H](NC(=O)[C@H]2CC[C@H](CCCN3CCC(n4cc(-c5cc(-c6ccccc6O)nnc5N)cn4)CC3)CC2)C(C)(C)C)cc1 [I-401] | > 90 | 100 to 500 | 70 to 90 | 100 to 500 | > 90 | < 100
Cc1ncsc1-c1ccc(CNC(=O)[C@@H]2C[C@@H](O)CN2C(=O)[C@@H](NC(=O)[C@H]2CC[C@H](c3cnc(N4C5CCC4CN(c4cc(-c6ccccc6O)nnc4N)C5)nc3)CC2)C(C)(C)C)c(C(F)(F)F)c1 [I-404] | > 90 | 100 to 500 | 70 to 90 | 100 to 500 | > 90 | < 100
Cc1ncsc1-c1ccc(CNC(=O)[C@@H]2C[C@@H](O)CN2C(=O)[C@@H](NC(=O)[C@H]2CC[C@H](c3cnc(N4C5CCC4CN(c4cc(-c6ccccc6O)nnc4N)C5)nc3)CC2)C(C)(C)C)c(OC(F)(F)F)c1 [I-405] | > 90 | < 100 | > 90 | 100 to 500 | > 90 | < 100
Cc1ncsc1-c1ccc(CNC(=O)[C@@H]2C[C@@H](O)CN2C(=O)[C@@H](NC(=O)[C@@H]2CC=C(c3cnc(N4C5CCC4CN(c4cc(-c6ccccc6O)nnc4N)C5)nc3)CC2)C(C)(C)C)cc1 [I-406] | > 90 | < 100 | 70 to 90 | < 100 | > 90 | < 100
Cc1ncsc1-c1ccc(CNC(=O)[C@@H]2C[C@@H](O)CN2C(=O)[C@@H](NC(=O)[C@H]2CC=C(c3cnc(N4C5CCC4CN(c4cc(-c6ccccc6O)nnc4N)C5)nc3)CC2)C(C)(C)C)cc1 [I-407] | > 90 | 100 to 500 | > 90 | < 100 | > 90 | < 100
CC(=O)O[C@@H]1C[C@@H](C(=O)NCc2ccc(-c3scnc3C)cc2)N(C(=O)[C@@H](NC(=O)[C@H]2CC[C@H](c3cnc(N4C5CCC4CN(c4cc(-c6ccccc6O)nnc4N)C5)nc3)CC2)C(C)(C)C)C1 [I-408] | > 90 | < 100 | > 90 | < 100 | > 90 | < 100
Cc1ncsc1-c1ccc(CNC(=O)[C@@H]2C[C@@H](OC(=O)[C@H](C)N)CN2C(=O)[C@@H](NC(=O)[C@H]2CC[C@H](c3cnc(N4C5CCC4CN(c4cc(-c6ccccc6O)nnc4N)C5)nc3)CC2)C(C)(C)C)cc1 [I-409] | > 90 | < 100 | > 90 | < 100 | > 90 | < 100
Cc1ncsc1-c1ccc(CNC(=O)[C@@H]2C[C@@H](O)CN2C(=O)[C@@H](NC(=O)C2CCC(c3cnc(N4C5CCC4CN(c4cc(-c6ccccc6O)nnc4N)C5)nc3)CC2C)C(C)(C)C)cc1 (stereo partly drawn) [I-411] | 50 to 70 | 501 to 1000 | > 90 | < 100 | > 90 | < 100
Cc1ncsc1-c1ccc(CNC(=O)[C@@H]2C[C@@H](O)CN2C(=O)[C@@H](NC(=O)[C@H]2CC[C@H](c3cnc(N4C5CCC4CN(c4cc(-c6ccccc6O)nnc4N)C5)nc3C)CC2)C(C)(C)C)cc1 [I-412] | > 90 | < 100 | > 90 | < 100 | > 90 | < 100
